Results from patent US8142760B2, “Vaccination for Lawsonia intracellularis” (priority 2008, dated 2012).

System: Lawsonia intracellularis
Assay: Fecal PCR for L. intracellularis in pigs after controlled exposure
Type: in vivo
Details: day 28, after 14 days of MECADOX 50 g/ton in feed started 14 days post inoculation
Source text: Four groups of pigs totaling 1409 pigs, between 8 and 10 weeks of age and sourced from a single nursery site, were moved to a finishing barn containing four separate rooms. The barn was filled over four consecutive weeks, filling one room per week. Each group of approximately 350 pigs was weighed as a group before placement into a barn room. The four rooms were alternately assigned to two treatment groups, inoculated (T1) and non-inoculated (T2). Sixteen animals per room were randomly selected and individually identified with ear tags.
On day 0, T1 pigs received inoculum of mucosal homogenate from PE-diseased intestine. Samples of inoculum were submitted to a diagnostic lab for quantification of L. intracellularis organisms before administration. The inoculum was delivered to each pen through the watering system and calibrated to deliver an average dose of 10^5±10 L. intracellularis organisms per pig over a 4-6 hour period. T2 pigs received no inoculum.
All pigs received MECADOX (carbadox) (50 g/ton) for at least 14 days in their nursery diets and up until day −3. Non-medicated feed was fed days −3 to 14 (exposure period) to both treatment groups. MECADOX (carbadox) 50 grams/ton medicated feed was fed to all pigs on days 14 to 28. From day 28 to end of study, all pigs received non-medicated feed. […]

COC(=O)N/N=C/c1c[n+]([O-])c2ccccc2[n+]1[O-] [MECADOX (carbadox), carbadox]
sampled, infected pigs negative by fecal PCR for L. intracellularis: 100%
